{"source": "PubChem BioAssay AID2060496", "about": "(Molecular Pharmacology Branch, DTP, NCI, 2025)", "tested_on": "276233-004-R-J1-PDC complex spheroid viability", "test": "Anticancer human tumor 276233-004-R-J1-PDC patient-derived colon adenocarcinoma cell line growth inhibition [GQUAD]", "conditions": "for pIC50: curve of first compound; for viability, T/C: stronger effect = lower value", "in_short": "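Tumor cells were grown as complex spheroids with HUVEC endothelial cells and mesenchymal stem cells as stroma. G-quadruplex stabilizers were combined with targeted agents over half-log dilutions from near the clinical Cmax, or from 10 microM.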", "note": "pIC50: −log10 of the molar value.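 Note: spheroids exposed to drugs for seven days.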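 Throughout, for viability, T/C: 100% = DMSO vehicle control viability.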", "data": [{"smiles": "COc1ccc([C@@H](O)c2cc(-c3ncnc4cc(N5CCOCC5)ccc34)c(F)cc2Cl)nn1", "note": "+ Cc1[nH]c2ccc(F)cc2c1-c1nc2c3cccnc3c3ncccc3c2[nH]1", "values": [{"measurement": "pIC50", "setting": "second compound 0.0316 µM", "value": "< 5.00"}, {"measurement": "pIC50", "setting": "second compound 0.1 µM", "value": "< 5.00"}, {"measurement": "pIC50", "setting": "second compound 0.316 µM", "value": "< 5.00"}, {"measurement": "pIC50", "setting": "second compound 1 µM", "value": 5.30}, {"measurement": "pIC50", "setting": "second compound 3.16 µM", "value": 6.37}, {"measurement": "pIC50", "setting": "second compound 10 µM", "value": 6.45}, {"measurement": "viability, T/C", "setting": "second compound 0.0316 µM, first compound 0.0316 µM", "value": 89.6, "unit": "%"}, {"measurement": "viability, T/C", "setting": "second compound 0.0316 µM, first compound 0.1 µM", "value": 77.9, "unit": "%"}, {"measurement": "viability, T/C", "setting": "second compound 0.0316 µM, first compound 0.316 µM", "value": 97.2, "unit": "%"}, {"measurement": "viability, T/C", "setting": "second compound 0.0316 µM, first compound 1 µM", "value": 72.6, "unit": "%"}, {"measurement": "viability, T/C", "setting": "second compound 0.0316 µM, first compound 3.16 µM", "value": 72.6, "unit": "%"}, {"measurement": "viability, T/C", "setting": "second compound 0.0316 µM, first compound 10 µM", "value": 68.7, "unit": "%"}, {"measurement": "viability, T/C", "setting": "second compound 0.1 µM, first compound 0.0316 µM", "value": 88.3, "unit": "%"}, {"measurement": "viability, T/C", "setting": "second compound 0.1 µM, first compound 0.1 µM", "value": 79.6, "unit": "%"}, {"measurement": "viability, T/C", "setting": "second compound 0.1 µM, first compound 0.316 µM", "value": 70.5, "unit": "%"}, {"measurement": "viability, T/C", "setting": "second compound 0.1 µM, first compound 1 µM", "value": 74, "unit": "%"}, {"measurement": "viability, T/C", "setting": "second compound 0.1 µM, first compound 3.16 µM", "value": 72.7, "unit": "%"}, {"measurement": "viability, T/C", "setting": "second compound 0.1 µM, first compound 10 µM", "value": 65.7, "unit": "%"}, {"measurement": "viability, T/C", "setting": "second compound 0.316 µM, first compound 0.0316 µM", "value": 87.8, "unit": "%"}, {"measurement": "viability, T/C", "setting": "second compound 0.316 µM, first compound 0.1 µM", "value": 79.4, "unit": "%"}, {"measurement": "viability, T/C", "setting": "second compound 0.316 µM, first compound 0.316 µM", "value": 96, "unit": "%"}, {"measurement": "viability, T/C", "setting": "second compound 0.316 µM, first compound 1 µM", "value": 80.9, "unit": "%"}, {"measurement": "viability, T/C", "setting": "second compound 0.316 µM, first compound 3.16 µM", "value": 70.9, "unit": "%"}, {"measurement": "viability, T/C", "setting": "second compound 0.316 µM, first compound 10 µM", "value": 61.2, "unit": "%"}, {"measurement": "viability, T/C", "setting": "second compound 1 µM, first compound 0.0316 µM", "value": 61.1, "unit": "%"}, {"measurement": "viability, T/C", "setting": "second compound 1 µM, first compound 0.1 µM", "value": 70.1, "unit": "%"}, {"measurement": "viability, T/C", "setting": "second compound 1 µM, first compound 0.316 µM", "value": 67, "unit": "%"}, {"measurement": "viability, T/C", "setting": "second compound 1 µM, first compound 1 µM", "value": 62.2, "unit": "%"}, {"measurement": "viability, T/C", "setting": "second compound 1 µM, first compound 3.16 µM", "value": 50.4, "unit": "%"}, {"measurement": "viability, T/C", "setting": "second compound 1 µM, first compound 10 µM", "value": 44.5, "unit": "%"}, {"measurement": "viability, T/C", "setting": "second compound 3.16 µM, first compound 0.0316 µM", "value": 59, "unit": "%"}, {"measurement": "viability, T/C", "setting": "second compound 3.16 µM, first compound 0.1 µM", "value": 51.7, "unit": "%"}, {"measurement": "viability, T/C", "setting": "second compound 3.16 µM, first compound 0.316 µM", "value": 51.1, "unit": "%"}, {"measurement": "viability, T/C", "setting": "second compound 3.16 µM, first compound 1 µM", "value": 49.1, "unit": "%"}, {"measurement": "viability, T/C", "setting": "second compound 3.16 µM, first compound 3.16 µM", "value": 33.3, "unit": "%"}, {"measurement": "viability, T/C", "setting": "second compound 3.16 µM, first compound 10 µM", "value": 24.1, "unit": "%"}, {"measurement": "viability, T/C", "setting": "second compound 10 µM, first compound 0.0316 µM", "value": 53.4, "unit": "%"}, {"measurement": "viability, T/C", "setting": "second compound 10 µM, first compound 0.1 µM", "value": 48, "unit": "%"}, {"measurement": "viability, T/C", "setting": "second compound 10 µM, first compound 0.316 µM", "value": 53, "unit": "%"}, {"measurement": "viability, T/C", "setting": "second compound 10 µM, first compound 1 µM", "value": 41.5, "unit": "%"}, {"measurement": "viability, T/C", "setting": "second compound 10 µM, first compound 3.16 µM", "value": 29, "unit": "%"}, {"measurement": "viability, T/C", "setting": "second compound 10 µM, first compound 10 µM", "value": 25.6, "unit": "%"}]}]}
